Source: PMC10215404, “Effect of Indole-Containing Pyrazino[2,1-b]quinazoline-3,6-diones in the Virulence of Resistant Bacteria” (Antibiotics, 2023)
Values after ≈ are worked out from the molar mass of the structure shown.

Assays:
Vibrio harveyi = conditions: aqua-pathogenic Vibrio harveyi; literature, reference not given; cited from earlier work
H1N1 = test system: H1N1; set-up: method as in PMID 23758051; conditions: anti-viral; cited from earlier work
E. coli AG100 [1] = experiment: Real-time ethidium bromide accumulation assay (efflux pump inhibition); conditions: minute 60
E. coli AG100A [2] = experiment: as above; conditions: compound at 100 μM, minute 60
S. aureus 272123 = experiment: as above; conditions: minute 60
[3] = test system: NIH/3T3 mouse fibroblast cell line; experiment: Cytotoxicity assay (MTT); type: cell-based; conditions: NIH3T3, 24 h
Protocol: The effects of increasing concentrations of compounds on cell growth were tested in 96-well flat-bottomed microtiter plates. The compounds were diluted in a volume of 100 μL of medium. Afterwards, 1 × 10^4 cells in 100 μL of medium were added to each well, with the exception of the medium control. In the case of NIH/3T3 cells, the compounds were added after seeding the cells at 37 °C overnight. The plates were incubated at 37 °C for 24 h; after the incubation period, 20 μL of MTT solution (from a 5 mg/mL stock) was added to each well. After 4 h of incubation at 37 °C, 100 μL of SDS solution (10% in 0.01 M HCl) was added to each well and the plates were incubated at 37 °C overnight. Cell growth was determined by measuring the optical density (OD) at 540 nm (ref. 630 nm) with a Multiscan EX ELISA reader. Inhibition of cell growth was determined as IC50 values, defined as the inhibitory dose that reduced the growth of the cells exposed to the tested compounds by 50%. IC50 values and the SD of triplicate experiments were calculated by using GraphPad Prism software version 5.00 for Windows with a nonlinear regression curve fit (GraphPad Software, San Diego, CA, USA; www.graphpad.com, accessed on 14 July 2022). Doxorubicin (from a 2 mg/mL stock solution, Teva Pharmaceuticals) was used as the positive control.

E. faecalis B3/101 (VRE) = experiment: MIC determination, broth microdilution; type: cell-based; conditions: Enterococcus faecalis
Excerpt: (§1) Both reference and resistant strains used in this work were employed by our group for the screening of different families of compounds, such as xanthones and thioxanthones.

S. aureus MRSA 272123 = experiment: MIC determination, broth microdilution; type: cell-based; conditions: Staphylococcus aureus
Excerpt: as §1

S. aureus 66/1 (MRSA) = experiment: MIC determination, broth microdilution; type: cell-based; conditions: Staphylococcus aureus
Excerpt: as §1

P. aeruginosa ATCC 27853 = experiment: MIC determination, broth microdilution; type: cell-based; conditions: Pseudomonas aeruginosa, ATCC27853
Excerpt: as §1

[4] = test system: E. coli (ATCC 25922, SA/2, AG100, AG100A); experiment: MIC determination, broth microdilution; type: cell-based; conditions: Escherichia coli, ATCC25922
Excerpt: as §1

S. aureus ATCC 29213 = experiment: MIC determination, broth microdilution; type: cell-based; conditions: Staphylococcus aureus, ATCC29213
Excerpt: as §1

E. faecalis ATCC 29212 = experiment: MIC determination, broth microdilution; type: cell-based; conditions: Enterococcus faecalis, ATCC29212
Excerpt: as §1

phytopathogenic fungi = test system: phytopathogenic fungi; set-up: method as in PMID 22409377; conditions: several phytopathogenic fungi; cited from earlier work
E. coli AG100A [5] = experiment: Biofilm formation, crystal violet method; type: cell-based, Escherichia coli
Protocol: (§2) The antibiofilm effect of the tested compounds was evaluated using the crystal violet method on E. coli AG100, E. coli AG100A, and MRSA 272123. […] CCCP was used as a positive control.
(§3) The biofilm-forming ability of the S. aureus strains was studied in 96-well microtiter plates using TSB broth in the presence of compounds. The biofilm-forming ability of the E. coli strains was studied in 96-well microtiter plates using LB broth in the presence of the compounds. […] The final volume was 200 μL in each well. The positive control was CCCP at 50 µM. Plates were incubated for 48 h at 30 °C with gentle shaking at 100 rpm. After the incubation period, the medium was removed and the plate was washed with water to remove unattached cells. A total of 200 μL CV (0.1% [v/v]) was added to each wells and incubated for 15 min at room temperature. CV was discarded from the wells and the plate was washed with water again. Then, 200 μL of 70% ethanol was added to each well and the biofilm formation was determined by measuring the OD at 600 nm using a Multiscan EX ELISA plate reader (Thermo Labsystems, Cheshire, WA, USA). The antibiofilm effect of the compounds was expressed as the percentage (%) decrease in biofilm formation.

E. coli AG100 [6] = experiment: Biofilm formation, crystal violet method; type: cell-based, Escherichia coli; conditions: 50 μM
Protocol: as §2, §3

Staphylococcus aureus = conditions: sensitive and methicillin-resistant strains of S. aureus; cited from earlier work
[7] = test system: human brain endothelial cell line (hCMEC/D3); set-up: method as in PMID 27268269; conditions: cited from earlier work
Enterococcus faecalis = conditions: sensitive and vancomycin-resistant strains of E. faecalis; cited from earlier work

Row | Structure (SMILES) | RFI ± SD (E. coli AG100 [1]; compound at 50 μM) | RFI ± SD (E. coli AG100 [1]; compound at 100 μM) | RFI ± SD (E. coli AG100A [2]) | RFI ± SD (S. aureus 272123; compound at 50 μM) | RFI ± SD (S. aureus 272123; compound at 100 μM) | IC50 [3] [µM] | MIC (E. faecalis B3/101 (VRE)) [µM] | MIC (S. aureus MRSA 272123) [µM] | MIC (S. aureus 66/1 (MRSA)) [µM] | MIC (P. aeruginosa ATCC 27853) [µM] | MIC [4] [µM] | MIC (S. aureus ATCC 29213) [µM] | MIC (E. faecalis ATCC 29212) [µM] | other results
1 | O=C1NCc2nc3ccccc3c(=O)n2[C@@H]1Cc1c[nH]c2ccccc12 [Compound 1, (R)-4-((1H-indol-3-yl)methyl)-1,2-dihydro-6H-pyrazino[2,1-b]quinazoline-3,6(4H)-dione] | −0.24 ± 0.05 | −0.04 ± 0.10 | 0.12 ± 0.01 | 0.23 ± 0.02 | −0.01 ± 0.04 | > 100 | > 100 | > 100 | > 100 | > 100 | > 100 | > 100 | > 100 | MIC (Vibrio harveyi): 32 µg/mL (≈ 92.9 µM); IC50 (H1N1): 100 to 150 µM
2 | C[C@@H]1NC(=O)[C@@H](Cc2c[nH]c3ccccc23)n2c1nc1ccccc1c2=O [Compound 2, (1S,4R)-4-((1H-indol-3-yl)methyl)-1-methyl-1,2-dihydro-6H-pyrazino[2,1-b]quinazoline-3,6(4H)-dione] | −0.31 ± 0.02 | 0.17 ± 0.10 | 0.26 ± 0.10 | −0.01 ± 0.02 | 0.05 ±0.02 | > 100 | > 100 | > 100 | > 100 | > 100 | > 100 | > 100 | > 100 | MIC (phytopathogenic fungi): 12.5 to 25 µg/mL; decrease in biofilm formation (E. coli AG100A [5]): 65%; antibiofilm effect (in words) (E. coli AG100 [6]): reduced the amount of biofilm
3 | CC(C)[C@@H]1NC(=O)[C@@H](C[C@]2(O)c3ccccc3N3C(=O)[C@@H](C)N[C@H]32)n2c1nc1ccccc1c2=O [Compound 3, Neofiscalin A] |  |  |  |  |  |  |  |  |  |  |  |  |  | MIC (Staphylococcus aureus): 8 µg/mL (≈ 16.9 µM); cytotoxicity (in words) [7]: no cytotoxicity; MIC (Enterococcus faecalis): 8 µg/mL (≈ 16.9 µM)
